Laboratory results from patent US11161876B2, “Anti-inflammatory nanofibers” (Northwestern University, priority 2015, dated 2021).
Entries after “also recorded” stand apart in the source; their conditions may differ. * marks the point of attachment. C16 alkyl = CCCCCCCCCCCCCCCC*

Assays:
Settings in all cases: 10 days post-augmentation; compared between groups
[1] = test system: Rat Bladder Augmentation Model; test: Bladder tissue collagen quantification (Masson's Trichrome); type: in vivo
Procedure: (§1) Athymic female rats (weighing ˜200 g and 8-10 weeks old; National Cancer Institute Animal Production Program) underwent bladder augmentation (ref. 15; herein incorporated by reference in its entirety). Athymic rats were chosen for this study to solely examine the innate immune response to inflammation without influence of the adaptive immune response. In order to induce anesthesia, animals were given intraperitoneal injections of 60 mg/kg ketamine and 5 mg/kg xylazine. A second injection consisting of Buprenex (1 mg/kg) was administered subcutaneously to alleviate any pain/discomfort during and following surgical procedures. An approximate 1.5 cm midline vertical skin incision was created to expose the abdominal fascia and muscles. This was immediately followed by the separation of the wall leading to the identification of the bladder. An approximate 70% supratrigonal cystectomy was performed from anterior to posterior creating a clamshell. Immediately prior to bladder augmentation procedures, samples of the pro-inflammatory biological scaffold, small intestinal submucosa (SIS (0.5×0.5 cm); Cook Biotech.) (refs. 12,13,16; herein incorporated by reference in their entireties) were thoroughly dip-coated separately in one of the previously described AIF-PAs following gelation procedures. The sections of SIS were dip-coated for approximately 20 seconds and allowed to adhere to the SIS for an additional 30 seconds. Dip-coating procedures were performed at room temperature in air. The cystectomized bladder defect was then augmented with: 1) SIS (non-AIF-PA coated SIS; n=8 animals over both time-points); 2) AIF-PA1 coated SIS (denoted as SIS/AIF-PA1; n=11 animals over both time-points); 3) AIF-PA2 coated SIS (denoted as SIS/AIF-PA2; n=8 animals over both time-points); 4) AIF-PA3 coated SIS (denoted as SIS/AIF-PA3; n=3); 5) AIF-PA4 coated SIS (denoted as SIS/AIF-PA4; n=3 animals); 6) AIF-PA5 coated SIS (denoted as SIS/AIF-PA5; n=3 animals); and 7) AIFC-PA6 coated SIS (denoted as SIS/AIFC-PA6; n=9 animals over both time-points). The bladder was finally covered with omentum after being closed in a watertight manner utilizing 7-0 polyglactin suture. The abdominal wall was then closed in a single layer with 5-0 ethibond running suture and the skin re-approximated with 9 mm autoclips. Each group was sacrificed at 10 day and 5 week time-points.
Explanted bladder specimens encompassing the entire thickness of the bladder were isolated immediately following euthanasia and processed (ref. 15; herein incorporated by reference in its entirety). Specimens were fixed in a 10% buffered formalin phosphate (Fisher Scientific, Inc.) solution followed by a series of graded ethanol exchanges then embedded in paraffin (Fisher Scientific). Embedded tissues were sectioned onto glass slides at a thickness of 10 μm using a RM2125 RT Microtome (Leica) onto glass slides and subjected to staining with Masson's Trichrome (Sigma-Aldrich Corp.) reagent. The paraffin was removed from tissue containing slides using a hot plate at 62° C. for 6 minutes and was followed by treatment with xylenes, graded ethanol washes and DI water. Slides were placed in Bouin's solution (Sigma-Aldrich Corp.) for approximately 15 min then rinsed under running tap water. The samples were then stained 5 minutes with Hematoxylin and rinsed with running water and subsequently stained with Scarlet-Acid Fuchsin (Sigma-Aldrich Corp.). Slides were rinsed again with DI water and placed into a mixture of PTA/PMA, followed by Aniline Blue solution and a 1% acetic acid wash. Finally, slides were placed in 95-100% ethanol and rinsed in xylene. Following air drying, a coverslip was placed over the specimen sample and secured with Permaslip (Alban Scientific Inc).
Bladder tissue specimens were evaluated for collagen content (refs. 13,15,17; herein incorporated by reference in their entireties). […]

[2] = test system: Rat Bladder Augmentation Model; test: Blood vessel quantification in areas of bladder tissue regeneration; type: in vivo
Procedure: as §1
Trichrome sample images were opened with Adobe Photoshop CS3 and were initially characterized utilizing a Nikon Eclipse 50i Microscope in addition to Spot Advanced Imaging Software. Vessel numbers were quantified utilizing the pen tool based upon n=10 images per graft in regenerated areas. Individual vessels were selected manually and subsequently quantified using the image histogram tool to acquire pixel density for each vessel. Data is represented as mean number of vessels/mm^2 (means±SE).

CD68+ macrophages = test: Immunofluorescence quantification of CD68+ macrophages in regenerated bladder tissue; type: in vivo, rat
Procedure: as §1
(§2) Tissue sections comprised of SIS alone, SIS/AIF-PA1, SIS/AIF-PA2, and SIS/AIF-PA6 augmentations were subjected to immunofluorescence staining by initially undergoing antigen retrieval which consisted of 15 min of boiling in citrate buffer (0.01M citrate solution, pH 6.0 with 0.05% Tween-20) followed by cooling at room temperature for approximately 20 minutes. The antibody staining process consisted of a blocking step for 15 min in bovine serum albumin (BSA, 5 mg/ml) followed by a 40 minutes incubation at room temperature with the primary antibody. After washing with DPBS, slides were incubated for 30 min with a secondary antibody and eventually rinsed with DPBS and air dried. Slides were mounted with Vectashield (Vector Laboratories). Primary antibodies were directed against epitopes for the inflammatory markers CD68 (macrophage) (refs. 18,19; herein incorporated by reference in their entireties) MPO (neutrophil) (ref. 20; herein incorporated by reference in its entirety) or the inflammation-related proteins IL1β, TNFα, IL-10, IL-13, CD206 (M2 macrophage) (refs. 21-25; herein incorporated by reference in their entireties) and CD86 (M1 macrophage) (ref. 26; herein incorporated by reference in its entirety). Antibodies directed against the ECM in regenerating bladder tissue (including COL4A3 and fibronectin) were also utilized. Alexa Red 555 or FITC conjugated secondary antibodies (Molecular Probes) were utilized for visualization (ref. 15; herein incorporated by reference in its entirety). […]

MPO+ neutrophils = test: Immunofluorescence quantification of MPO+ neutrophils in regenerated bladder tissue; type: in vivo, rat
Procedure: as §1, §2

| Substance | collagen levels, in words [1] | blood vessel formation, in words [2] | CD68+ macrophage levels, in words (CD68+ macrophages) | MPO+ neutrophil levels, in words (MPO+ neutrophils) |
| --- | --- | --- | --- | --- |
| C16-VVVAAAEEEDPVKG (SEQ ID NO:5) ({C16 alkyl}-VVVAAAEEEDPVKG-NH2) [SIS/AIF-PA5, anti-inflammatory peptide amphiphile, tested dip-coated on small intestinal submucosa (SIS) scaffold] | not significantly different from those of control groups | least level of blood vessel formation; also recorded: not significantly different from those of control groups |  |  |
| C16-VVVAAAEEEKVLDPVKG (SEQ ID NO:3) ({C16 alkyl}-VVVAAAEEEKVLDPVKG-NH2) [SIS/AIF-PA3, anti-inflammatory peptide amphiphile, tested dip-coated on small intestinal submucosa (SIS) scaffold] | lower mean collagen levels | greater numbers of vessels/mm2 | comparable macrophage levels to SIS/AIF-PA1; also recorded: significantly lower |  |
| C16-VVVAAAEEEKVLDGQDP (SEQ ID NO:4) ({C16 alkyl}-VVVAAAEEEKVLDGQDP-NH2) [SIS/AIF-PA4, anti-inflammatory peptide amphiphile, tested dip-coated on small intestinal submucosa (SIS) scaffold] | lower mean collagen levels | greater numbers of vessels/mm2 | significantly lower | significantly lower |
